How the values were obtained:
LOLRI = assay: Pre-emergence herbicidal action against LOLRI; assay type: in vivo, Lolium rigidum; settings: 80 g/ha
Procedure, shortened: (§1)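 Greenhouse pots of sandy loam held seeds covered with soil, onto which the compound was applied before emergence. An aqueous suspension or emulsion of WP or EC was used at 600 to 800 l/ha with 0.2% wetting agent. Percent damage was judged visually at 3 weeks.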

ALOMY [1] = assay: Post-emergence herbicidal action against ALOMY; assay type: in vivo, Alopecurus myosuroides; settings: Alopecurus myosuroides, 504 h, dosage 20 g/ha, visual assessment about 3 weeks after treatment vs untreated controls
Procedure, shortened: (§2)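 A WP or EC formulation diluted in water with 0.2% wetting agent was sprayed at 600 to 800 l/ha onto one-leaf-stage plants grown in sandy loam. About 3 weeks later, action was rated visually in percent, 100% being dead plants.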

AMARE [2] = assay: Post-emergence herbicidal action against AMARE; assay type: in vivo, Amaranthus retroflexus; settings: 20 g/ha, visual assessment about 3 weeks after treatment, 100% = plants have died, 0% = like control plants
Procedure, shortened: as §2

VERPE [3] = assay: Post-emergence herbicidal action against VERPE; assay type: in vivo, Veronica persica; settings: 20 g/ha
Procedure, shortened: as §2

AVEFA [4] = assay: Pre-emergence herbicidal action against AVEFA; assay type: in vivo, Avena fatua; settings: 80 g/ha, pre-emergence
Procedure, shortened: as §1

AVEFA [5] = assay: Post-emergence herbicidal action against AVEFA; assay type: in vivo, Avena fatua; settings: 20 g/ha, visual assessment about 3 weeks after treatment, 100% = plants have died, 0% = like control plants
Procedure, shortened: as §2

VIOTR [6] = assay: Pre-emergence herbicidal action against VIOTR; assay type: in vivo, Viola tricolor
Procedure, shortened: as §1

ABUTH [7] = assay: Post-emergence herbicidal action against ABUTH; assay type: in vivo, Abutilon theophrasti; settings: visual assessment about 3 weeks after treatment vs untreated controls
Procedure, shortened: as §2

SETVI [8] = assay: Post-emergence herbicidal action against SETVI; assay type: in vivo, Setaria viridis; settings: Setaria viridis, 504 h
Procedure, shortened: as §2

AMARE [9] = assay: Pre-emergence herbicidal action against AMARE; assay type: in vivo, Amaranthus retroflexus
Procedure, shortened: as §1

MATIN [10] = assay: Pre-emergence herbicidal action against MATIN; assay type: in vivo, Matricaria inodora
Procedure, shortened: as §1

ALOMY [11] = assay: Pre-emergence herbicidal action against ALOMY; assay type: in vivo, Alopecurus myosuroides; settings: 80 g/ha, pre-emergence, scored visually after 3 weeks vs untreated controls (100% = plants have died, 0% = like control plants)
Procedure, shortened: as §1

SETVI [12] = assay: Pre-emergence herbicidal action against SETVI; assay type: in vivo, Setaria viridis
Procedure, shortened: as §1

ECHCG [13] = assay: Pre-emergence herbicidal action against ECHCG; assay type: in vivo, Echinochloa crus-galli; settings: 80 g/ha
Procedure, shortened: as §1

VERPE [14] = assay: Pre-emergence herbicidal action against VERPE; assay type: in vivo, Veronica persica
Procedure, shortened: as §1

PHBPU [15] = assay: Post-emergence herbicidal action against PHBPU; assay type: in vivo, Pharbitis purpurea
Procedure, shortened: as §2

DIGSA [16] = assay: Post-emergence herbicidal action against DIGSA; assay type: in vivo, Digitaria sanguinalis; settings: 20 g/ha
Procedure, shortened: as §2

ECHCG [17] = assay: Post-emergence herbicidal action against ECHCG; assay type: in vivo, Echinochloa crus-galli
Procedure, shortened: as §2

DIGSA [18] = assay: Pre-emergence herbicidal action against DIGSA; assay type: in vivo, Digitaria sanguinalis
Procedure, shortened: as §1

MATIN [19] = assay: Post-emergence herbicidal action against MATIN; assay type: in vivo, Matricaria inodora
Procedure, shortened: as §2

VIOTR [20] = assay: Post-emergence herbicidal action against VIOTR; assay type: in vivo, Viola tricolor; settings: 20 g/ha
Procedure, shortened: as §2

ABUTH [21] = assay: Pre-emergence herbicidal action against ABUTH; assay type: in vivo, Abutilon theophrasti
Procedure, shortened: as §1

PHBPU [22] = assay: Pre-emergence herbicidal action against PHBPU; assay type: in vivo, Pharbitis purpurea; settings: dosage 80 g/ha
Procedure, shortened: as §1

[23] = 80 g/ha, scored visually after 3 weeks vs untreated controls (100% = plants have died, 0% = like control plants)

CNC(=O)c1c(Cl)ccc(C(=O)Nc2nnnn2C)c1Br [Example 1-349]
90%: pest or weed control at 80 g/ha (LOLRI; Lolium rigidum, 504 h) | pest or weed control at 20 g/ha (ABUTH [7]; Abutilon theophrasti, 504 h, dosage 20 g/ha) | pest or weed control at 5 g/ha (SETVI [8]; dosage 5 g/ha) | pest or weed control at 20 g/ha (SETVI [8]; dosage 20 g/ha) | pest or weed control at 80 g/ha (MATIN [10]; Tripleurospermum inodorum, 504 h, dosage 80 g/ha) | pest or weed control at 20 g/ha (SETVI [12]; Setaria viridis, 504 h, dosage 20 g/ha) | pest or weed control at 80 g/ha (ECHCG [13]; Echinochloa crus-galli, 504 h) | pest or weed control at 20 g/ha (VERPE [14]; Veronica persica, 504 h, dosage 20 g/ha) | pest or weed control at 80 g/ha (VERPE [14]; Veronica persica, 504 h, dosage 80 g/ha)
100%: pest or weed control at 20 g/ha (AMARE [2]; Amaranthus retroflexus, 504 h) | pest or weed control at 80 g/ha (AVEFA [4]; Avena fatua, 504 h) | pest or weed control at 80 g/ha (VIOTR [6]; Viola tricolor, 504 h, dosage 80 g/ha) | pest or weed control at 20 g/ha (AMARE [9]; Amaranthus retroflexus, 504 h, 20 g/ha, scored visually after 3 weeks vs untreated controls, 100% = plants have died, 0% = like control plants) | pest or weed control at 80 g/ha (AMARE [9]; Amaranthus retroflexus, 504 h, 80 g/ha, scored visually after 3 weeks vs untreated controls, 100% = plants have died, 0% = like control plants) | pest or weed control at 80 g/ha (ALOMY [11]; Alopecurus myosuroides, 504 h) | pest or weed control at 80 g/ha (SETVI [12]; Setaria viridis, 504 h, dosage 80 g/ha)
80%: pest or weed control at 20 g/ha (ALOMY [1]) | pest or weed control at 20 g/ha (VERPE [3]; Veronica persica, 504 h) | pest or weed control at 20 g/ha (AVEFA [5]; Avena fatua, 504 h) | pest or weed control at 5 g/ha (ABUTH [7]; Abutilon theophrasti, 504 h, dosage 5 g/ha)

CCn1nnnc1NC(=O)c1ccc(C(F)(F)F)c(C(=O)NC(C)C2CC2)c1Cl (stereo not shown) [Example 2-135]
90%: Post-emergence action at 20 g/ha against AMARE in % (AMARE [2]) | Post-emergence action against VERPE in % (VERPE [3]) | Pre-emergence action against AVEFA in % (AVEFA [4]) | Post-emergence action against ECHCG in % (ECHCG [17]; dosage 20 g/ha) | Post-emergence action against MATIN in % (MATIN [19]; dosage 5 g/ha) | Post-emergence action against MATIN in % (MATIN [19]; dosage 20 g/ha) | Post-emergence action against VIOTR in % (VIOTR [20]) | Pre-emergence action against MATIN in % (MATIN [10]; dosage 20 g/ha) | Pre-emergence action against ALOMY (herbicidal activity) (ALOMY [11])
80%: Pre-emergence action against LOLRI in % (LOLRI) | Post-emergence action against PHBPU in % (PHBPU [15]; dosage 5 g/ha) | Post-emergence action against PHBPU in % (PHBPU [15]; dosage 20 g/ha) | Post-emergence action against DIGSA (DIGSA [16]) | Post-emergence action against ECHCG in % (ECHCG [17]; dosage 5 g/ha) | Post-emergence action at 20 g/ha against AVEFA in % (AVEFA [5]) | Post-emergence action against ABUTH in % (ABUTH [7]; dosage 20 g/ha) | Pre-emergence action against PHBPU in % (PHBPU [22])
100%: Pre-emergence action against DIGSA in % (DIGSA [18]; dosage 20 g/ha) | Pre-emergence action against DIGSA in % (DIGSA [18]; dosage 80 g/ha) | Pre-emergence action against VIOTR in % (VIOTR [6]; dosage 20 g/ha) | Pre-emergence action against VIOTR in % (VIOTR [6]; dosage 80 g/ha) | Pre-emergence action against ABUTH (herbicidal activity) (ABUTH [21]; [23]) | Pre-emergence action against ABUTH (herbicidal activity in percent) (ABUTH [21]; dosage 20 g/ha, scored visually after 3 weeks vs untreated controls, 100% = plants have died, 0% = like control plants) | Pre-emergence action against AMARE in % (AMARE [9]; 20 g/ha, scored visually after 3 weeks vs untreated controls, 100% = plants have died, 0% = like control plants) | Pre-emergence action against AMARE in % (AMARE [9]; [23]) | Pre-emergence action against MATIN in % (MATIN [10]; dosage 80 g/ha) | Pre-emergence action against SETVI in % (SETVI [12]; dosage 80 g/ha) | Pre-emergence action against ECHCG in % (ECHCG [13]) | Pre-emergence action against VERPE in % (VERPE [14]; dosage 80 g/ha)

Source: US12655116B2, “Substituted isophthalic acid diamides” (Bayer Aktiengesellschaft, priority 2020, dated 2026)
